Assay results as given in patent US20250339409A1, “USES OF PAN BET INHIBITORS” (VYNE THERAPEUTICS INC., priority 2021, published 2025).
Where “and” joins values, the source holds several entries; their conditions need not be identical. Identical values can stand only once.

Tested on: incisional skin wounds
Assay: Incisional skin wound healing model (external and internal scoring, time to complete healing, body weight)
Assay type: in vivo, female Hairless Skh-1 mice
Design: key to Mean internal scores, Score presence tissue mass: 0 = no tissue mass, 1 = small, 2 = moderate, 3 = large; key to Global external score per day (mean): sum of the scores of 4 external wound parameters; MBWC D 16 − D 0, individual mouse: unit not given here
Conditions: for Global external score per day (mean) / Mean score swelling per day / Mean score visibility (external) per day: BETi1 at 1%; for Mean score length (mm) per day / Mean score width (mm) per day: skin wound; for Body weight, individual mouse: in g (unit assumed)
Description: Incisional wounds (10 mm) are made over the entire thickness of the skin (about 1 mm) on both flanks of nine female Hairless Skh-1 mice divided into 3 groups (n=3) according to body weight on D0. Formulations or hydroalcoholic gel are administered topically once daily starting immediately after the induction of skin wounds on DO until the complete healing of both wounds of each mouse, at the same time in the morning. The effects of treatment on wound healing with the formulation used containing one dose of the novel BETi, the vehicle of this new compound (negative control) and a hydroalcoholic gel preventing wound healing (positive control), is evaluated by the daily scoring of the healing process externally. The scoring is based on the daily measurement of the length and width, swelling of each induced skin wound from DO until complete healing, the determination of the time required for complete healing of each of induced skin wounds, and after complete healing of both wounds of a same mouse, by the scoring of the healing process internally by evaluation of the visibility of the scar, the presence of a tissue mass (collagen+elastin) under the scar and the level of vascularization of the scar.
Mice are weighed 3 times per week from the day of induction of skin wounds (D0) until the complete healing of both wounds of each mouse and before sacrifice. The viability and the well being of mice of each cage is checked and recorded daily.
The scoring takes into account the following 4 parameters: The length of the skin wounds measured with a ruler.
The width of the skin wounds with the following scoring grid: • 0=skin wound completely closed, • 1=skin wound almost completely closed, • 2=skin wound moderately closed, • 3=skin wound wide open.
The swelling of the skin wounds with the following scoring grid: • 0=skin wound no or no longer swollen, • 1=skin wound slightly swollen, • 2=skin wound moderately swollen, • 3=skin wound highly swollen.
The visibility of the skin wounds with the following scoring grid: • 0=skin wound no or no longer visible, • 1=skin wound slightly visible, • 2=skin wound moderately visible, • 3=skin wound highly visible.
The sum of the scores of these 4 parameters gives the Global External Score of Wound Healing (GESWH). The time required for complete healing of each induced skin wound is also determined.
After the complete healing of both skin wounds of each mouse, mice are sacrificed, and the scoring of the healing process internally is performed for each wound and takes into account the following 3 parameters: • visibility of the scar with the following scoring grid: • 0=scar highly visible • 1=scar moderately visible, • 2=scar slightly visible • 3=scar non-visible.
The presence of a tissue mass (collagen+elastin) under the scar with the following scoring grid: • 0=no tissue mass present, • 1=small tissue mass present, • 2=moderate tissue mass present, • 3=large tissue mass present.
The level of vascularization of the scar with the following scoring grid: • 0=important vascularization of the scar, • 1=moderate vascularization of the scar, • 2=low vascularization of the scar, • 3=very little vascularization of the scar.
The sum of the scores of these 3 parameters gives the Global Internal Score of Wound Healing (GISWH). A macroscopic observation of all organs of the abdominal and thoracic cavities is performed on all mice. Any other organ with abnormal shape, size or colour is listed.
The body weight, mean body weight change (MBWC) of mice, the external scores of the length, width, swelling and visibility of skin wounds as well as the Global External Score of Wound Healing (GESWH), the time required for complete healing of skin wounds, and the internal scores of the visibility, the presence of a tissue mass and the vascularization of scars as well as the Global Interna Score of Wound Healing (GISWH) are analyzed at the end of the experimentation. […]

Cn1cc(-c2cccc(O)c2Oc2ccccc2)c2cc[nH]c2c1=O [BETi1]
Global external score per day (mean) (D 0): 15.00
Mean score swelling per day (D 0): 0.00
Mean score visibility (external) per day (D 0): 3.00
Global external score per day (mean) (D 1): 16.33
Mean score swelling per day (D 1): 1.33
Mean score visibility (external) per day (D 1): 3.00
Global external score per day (mean) (D 2): 17.67
Mean score swelling per day (D 2): 2.00
Mean score visibility (external) per day (D 2): 3.00
Global external score per day (mean) (D 3): 18.17
Mean score swelling per day (D 3): 2.00
Mean score visibility (external) per day (D 3): 3.00
Global external score per day (mean) (D 4): 17.50
Mean score swelling per day (D 4): 2.17
Mean score visibility (external) per day (D 4): 3.00
Global external score per day (mean) (D 5): 15.00
Mean score swelling per day (D 5): 2.17
Mean score visibility (external) per day (D 5): 3.00
Global external score per day (mean) (D 6): 14.17
Mean score swelling per day (D 6): 2.17
Mean score visibility (external) per day (D 6): 3.00
Global external score per day (mean) (D 7): 13.67
Mean score swelling per day (D 7): 2.50
Mean score visibility (external) per day (D 7): 3.00
Global external score per day (mean) (D 8): 13.50
Mean score swelling per day (D 8): 2.33
Mean score visibility (external) per day (D 8): 2.83
Global external score per day (mean) (D 9): 13.33
Mean score swelling per day (D 9): 2.17
Mean score visibility (external) per day (D 9): 2.83
Global external score per day (mean) (D 10): 12.00
Mean score swelling per day (D 10): 2.17
Mean score visibility (external) per day (D 10): 2.83
Global external score per day (mean) (D 11): 10.33
Mean score swelling per day (D 11): 1.83
Mean score visibility (external) per day (D 11): 2.67
Global external score per day (mean) (D 12): 8.00
Mean score swelling per day (D 12): 1.67
Mean score visibility (external) per day (D 12): 2.17
Global external score per day (mean) (D 13): 5.17
Mean score swelling per day (D 13): 1.67
Mean score visibility (external) per day (D 13): 1.17
Global external score per day (mean) (D 14): 4.50
Mean score swelling per day (D 14): 1.67
Mean score visibility (external) per day (D 14): 0.83
Global external score per day (mean) (D 15): 3.00
Mean score swelling per day (D 15): 1.50
Mean score visibility (external) per day (D 15): 0.50
Global external score per day (mean) (D 16): 2.17
Mean score swelling per day (D 16): 1.17
Mean score visibility (external) per day (D 16): 0.33
Global external score per day (mean) (D 17): 0.50
Mean score swelling per day (D 17): 0.50
Mean score visibility (external) per day (D 17): 0.00
Mean internal scores, Global internal score (after complete healing): 2.00
Mean internal scores, Score presence tissue mass (after complete healing): 0.50
Mean internal scores, Score vascularization (after complete healing): 1.33
Mean internal scores, Score visibility scar (after complete healing): 0.17
global external lesion severity score (compared to hydroalcoholic gel, beginning at treatment day 5): statistically significant decrease (improvement) in global external lesion severity score
complete healing earlier compared to hydroalcoholic gel (incisional lesions): approximately 5 days
mean time to heal (incisional lesions): 15.5 days
Mean time for complete wound healing, Day for complete healing (incisional wounds, once daily topical): 15.50 days
swelling at wound edges (significantly different on Days 15, 16 and 17 compared to vehicle and hydroalcoholic gel): rapidly reduced the swelling at wound edges
Mean score length (mm) per day (D 0): 10.00 mm
Mean score width (mm) per day (D 0): 2.00 mm
Mean score length (mm) per day (D 1): 10.00 mm
Mean score width (mm) per day (D 1): 2.00 mm
Mean score length (mm) per day (D 2): 10.00 mm
Mean score width (mm) per day (D 2): 2.67 mm
Mean score length (mm) per day (D 3): 10.00 mm
Mean score width (mm) per day (D 3): 2.83 mm
Mean score length (mm) per day (D 4): 9.33 mm
Mean score width (mm) per day (D 4): 3.00 mm
Mean score length (mm) per day (D 5): 7.50 mm
Mean score width (mm) per day (D 5): 2.33 mm
Mean score length (mm) per day (D 6): 6.50 mm
Mean score width (mm) per day (D 6): 2.50 mm
Mean score length (mm) per day (D 7): 5.67 mm
Mean score width (mm) per day (D 7): 2.50 mm
Mean score length (mm) per day (D 8): 5.67 mm
Mean score width (mm) per day (D 8): 2.67 mm
Mean score length (mm) per day (D 9): 5.50 mm
Mean score width (mm) per day (D 9): 2.83 mm
Mean score length (mm) per day (D 10): 4.83 mm
Mean score width (mm) per day (D 10): 2.17 mm
Mean score length (mm) per day (D 11): 3.83 mm
Mean score width (mm) per day (D 11): 2.00 mm
Mean score length (mm) per day (D 12): 2.67 mm
Mean score width (mm) per day (D 12): 1.50 mm
Mean score length (mm) per day (D 13): 1.50 mm
Mean score width (mm) per day (D 13): 0.83 mm
Mean score length (mm) per day (D 14): 1.17 mm
Mean score width (mm) per day (D 14): 0.83 mm
Mean score length (mm) per day (D 15): 0.50 mm
Mean score width (mm) per day (D 15): 0.50 mm
Mean score length (mm) per day (D 16): 0.33 mm
Mean score width (mm) per day (D 16): 0.33 mm
Mean score length (mm) per day (D 17): 0.00 mm
Mean score width (mm) per day (D 17): 0.00 mm
tolerability within the lesion sites and in general (throughout the treatment period): appeared to be well-tolerated
Mean body weight (gram) per day (wound model, D 0): 26.61 gram
Body weight, individual mouse (wound model, D 0, listed as BETi11.0%): 25.00 and 28.64 and 26.19
Mean body weight (gram) per day (wound model, D 2): 25.53 gram
Mean body weight (gram) per day (wound model, D 4): 25.70 gram
Mean body weight (gram) per day (wound model, D 7): 26.10 gram
Mean body weight (gram) per day (wound model, D 9): 26.85 gram
Mean body weight (gram) per day (wound model, D 11): 27.01 gram
Mean body weight (gram) per day (wound model, D 13): 26.88 gram
Mean body weight (gram) per day (wound model, D 16): 27.33 gram
Body weight, individual mouse (wound model, D 16, listed as BETi11.0%): 25.10 and 28.47 and 28.43
MBWC D 16 − D 0, individual mouse (wound model, listed as BETi11.0%): 0.10 and −0.17 and 2.24
